Laboratory results taken from patent publication US10495648B2, “Methods of treating liver fibrosis” (GILEAD SCIENCES, INC., priority 2017, dated 2019).
Several values for one entry are separate records, joined by “and”; a condition that tells them apart may be missing. Equal entries are not always repeated.

How the values were obtained:
Format in all cases: in vivo, human
[1] = test system: plasma miRNAs; test: Plasma miRNA qPCR in phase 2 study GS-US-384-1497, miRNAs modulated by SEL treatment
Text: Plasma samples were obtained from 72 subjects enrolled in the GS-US-384-1497 Gilead study. The study is a phase 2 study evaluating the safety, tolerability, and efficacy of selonsertib (ASK1 inhibitor) alone or in combination with simtuzumab (SIM) in subjects with Nonalcoholic Steatohepatitis (NASH) and fibrosis stages F2-F3. The inclusion criteria included patients with metabolic syndrome, serum ALT≥1.5×ULN and ≤5×ULN, and Fibroscan that measures liver stiffness: ≥7 kPa and <12 kPa, or NAS score greater ≥5 with fibrosis stage 2 to 3.
Total RNA samples were isolated and 301 selected miRNA were measured by qPCR. MiRNA expression levels were normalized using the global mean of all expressed miRNAs. Differential expression analyses were performed using limma method; p-values in multiple comparisons were corrected using the Benjamini-Hochberg method. Spearman correlations were calculated between miRNA expression with fibrosis stage and NAS score at baseline and at week 24.
11 miRNAs (hsa-miR-505-3p, hsa-miR-29a-3p, hsa-miR-215-5p, hsa-miR-148a-3p, hsa-miR-99a-5p, hsa-miR-885-5p, hsa-miR-122-5p, hsa-miR-34a-5p, hsa-miR-365a-3p, hsa-miR-194-5p, hsa-miR-155-5p) with nominal […] were modulated by SEL treatment, see Table 2 below.

[2] = test system: NASH patients; test: Safety and efficacy of SIM in NASH patients, studies GS-US-321-0105 and GS-US-321-0106 (fibrosis)
Protocol: The miR analysis was expanded to using GS-US-321-0105 and GS-US-321-0106 studies where biopsy proven samples were used from NASH patients. These studies had evaluated the safety and efficacy of Simtuzamab (SIM) in NASH patients. […] It was observed that 20% of the samples had fibrosis improvement, 20% fibrosis […] and for the rest of the subjects the fibrosis remained unchanged. As these samples represented the natural history of fibrosis changes, miR expression was analyzed in these samples.
Subjects in GS-US-384-1497 phase 2 trials were enrolled with F2-3 Stages of fibrosis and subjects in GS-US-321-0105 phase 2 trial were enrolled with F3 Stage of fibrosis and GS-US-321-0106 phase 2 trial subjects were enrolled with F4 stage of fibrosis.

[3] = test system: plasma miRs; test: Plasma miR qPCR in GS-US-321-0105 and GS-US-321-0106, association with SIM treatment
Protocol: Screen failed subjects were included in the analysis to ensure the miRs were analyzed in all the fibrosis stages. The samples analyzed after quality control, which excluded samples that were hemolyzed and samples that had overall low expression of miRs.
Plasma miRs were isolated with spike-in controls using total RNA isolation kit (Exiqon, Denmark). Complementary DNA was synthesized with spike-in control using the Exiqon cDNA synthesis kit and selected plasma miRs (n=157) were measured at BL, W12, and W24 by qPCR using the Exiqon platform (Covance, USA). For the 1497 study, 301 miRs were measured but only 132 miRs were expressed therefore for the 105/106 studies we measured the 132 miRs with 25 additional miRs were measured for the 105/106 study. The data was normalized using Global fit method of normalization.

Molecule: Cc1cc(F)c(C(=O)Nc2cccc(-c3nncn3C(C)C)n2)cc1-n1cnc(C2CC2)c1 [SEL, selonsertib]
- Fold Change miR-29a-3p ([1]; 6 mg SEL ± SIM, week 24): −1.23
- Fold Change miR-34a-5p ([1]; 6 mg SEL ± SIM, week 24): −1.54
- Fold Change miR-99a-5p ([1]; 6 mg SEL ± SIM, week 24): −1.33
- Fold Change miR-122-5p ([1]; 6 mg SEL ± SIM, week 24): −1.42
- Fold Change miR-148a-3p ([1]; 6 mg SEL ± SIM, week 24): −1.28
- Fold Change miR-194-5p ([1]; 6 mg SEL ± SIM, week 24): −1.30
- Fold Change miR-215-5p ([1]; 6 mg SEL ± SIM, week 24): −1.27
- Fold Change miR-365a-3p ([1]; 6 mg SEL ± SIM, week 24): −1.65
- Fold Change miR-505-3p ([1]; 6 mg SEL ± SIM, week 24): −1.24
- Fold Change miR-885-5p ([1]; 6 mg SEL ± SIM, week 24): −1.37
- Fold Change miR-34a-5p ([1]; 18 mg SEL ± SIM, week 24): −1.33
- Fold Change miR-99a-5p ([1]; 18 mg SEL ± SIM, week 24): −1.25
- Fold Change miR-155-5p ([1]; 18 mg SEL ± SIM, week 24): 1.33
- Fold Change miR-885-5p ([1]; 18 mg SEL ± SIM, week 24): −1.56
- number of miRNAs modulated by SEL treatment ([1]; GS-US-384-1497, week 24): 11 and 12

B1: simtuzumab (antibody, chains of the INN, looked up, V domains shown)
VH: QVQLVQSGAEVKKPGASVKVSCKASGYAFTYYLIEWVRQAPGQGLEWIGVINPGSGGTNYNEKFKGRATITADKSTSTAYMELSSLRSEDTAVYFCARNWMNFDYWGQGTTVTVSS
VL: DIVMTQTPLSLSVTPGQPASISCRSSKSLLHSNGNTYLYWFLQKPGQSPQFLIYRMSNLASGVPDRFSGSGSGTDFTLKISRVEAEDVGVYYCMQHLEYPYTFGGGTKVEIK
- effect on fibrosis [2]: ineffective at reducing fibrosis
- miRs associated with SIM treatment [3]: no miRs associated with SIM treatment
